Results from patent publication US9156790B2, “Anticancer P21-activated kinase inhibitors” (Ohio State Innovation Foundation, priority 2013, dated 2015).
“Also recorded” adds a separate entry of the source. Like-named read-outs stand apart in the source and are kept apart here.

How the values were obtained:
TPC1 cells = assay: MTT cell viability assay, TPC1; type: cell-based, Human; conditions: Homo sapiens, TPC1, 72-hours of exposure, 1% FBS, mean±standard deviation (n=3), read-out: IC50 for reducing viability of TPC1 cells versus DMSO control
Source text: Human thyroid cancer BCPAP, TPC1, and FTC133 cell lines were the generous gifts of Drs. Rebecca Schweppe and Bryan Haugen (University of Colorado Denver) (Schweppe et al., The Journal of clinical endocrinology and metabolism 83:4331-4341 (2008)) with permission from the following originating laboratories: BCPAP—Dr. Fabien, Centre Hospitalier Lyon-Sud, France (Fabien et al., Cancer 73:2206-2212 (1994)); TPC1—Dr. Sato, Kanazawa University, Japan (Tanaka et al., Virology 161:62-411 (1987)); and FTC133—Dr. Goretzki, University of Leipzig, Germany (Goretzki et al., Recent Results Cancer Res 118:48-63 (1990)). The obtained cell lines were confirmed for identity by DNA fingerprinting. BCPAP was grown in RPMI 1640 medium (Life Technologies Co., Carlsbad, Calif.) while FTC133 and TPC1 were grown in DMEM (Life Technologies Co.), both supplemented with 10% fetal bovine serum (FBS) and NEAA unless as noted for experiments.
The effect of OSU-03012 and its derivatives on cell viability was assessed by using the 3-(4,5-dimethylthiazol-2-yl)-2,5-diphenyl-2H-tetrazolium bromide (MTT) assay. Three replicates were performed in each individual experiment, and experiments were repeated at least three separate times. Cells were grown in 96-well plates for 24 hours and were exposed to various concentrations of drugs dissolved in DMSO (final concentration 0.1%) in RPMI 1640 or DMEM containing 1% FBS for 72 hours. 10 μL of 0.5 mg/ml MTT was added to each well and cells were incubated in CO2 at 37° C. for 2 hours. Supernatants were removed from the wells, the reduced MTT dye was solubilized in 100 μL of solution C (12 ml of 1N HCl in 300 mL of isopropanol), and absorbance at 570 nm was determined on a microplate reader.
We assessed the ability of the compounds to reduce cell viability in vitro by MTT assay after 72 hours of continuous exposure. Results are shown in Table 1 and are depicted as the IC50 vs. simultaneously performed DMSO control.
^aThe reported IC50 values are concentrations at which BCPAP, FTC133 and TPC1 cell viability by MTT assays 50% of DMSO control after 72-hours of exposure. Data are presented as mean±standard deviation (n=3). PAK and PDK1 Selectivity In Vivo

GSK3α = GSK3α (Homo sapiens, UniProt P49840); assay: Kinase profiling panel: GSK3α; type: biochemical; conditions: 5 μM compound; average of triplicate
Sequence of GSK3α (P49840 whole entry, species assumed): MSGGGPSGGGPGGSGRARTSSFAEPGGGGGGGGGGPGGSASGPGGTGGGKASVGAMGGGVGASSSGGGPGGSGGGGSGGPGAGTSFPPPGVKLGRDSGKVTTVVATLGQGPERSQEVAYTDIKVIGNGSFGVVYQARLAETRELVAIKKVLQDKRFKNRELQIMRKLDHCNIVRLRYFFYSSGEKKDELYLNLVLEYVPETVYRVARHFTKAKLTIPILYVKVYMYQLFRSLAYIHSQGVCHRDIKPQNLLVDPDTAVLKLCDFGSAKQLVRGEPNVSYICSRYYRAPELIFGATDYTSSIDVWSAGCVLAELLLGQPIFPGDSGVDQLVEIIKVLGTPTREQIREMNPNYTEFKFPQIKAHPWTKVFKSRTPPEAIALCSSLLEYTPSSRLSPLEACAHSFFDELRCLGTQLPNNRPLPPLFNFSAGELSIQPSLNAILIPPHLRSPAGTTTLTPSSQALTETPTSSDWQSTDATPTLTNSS
Description: (§1) To further probe the selectivity of the compounds 4 and 15, they were subjected for kinase profiling service for screening against a panel of other kinases selected based on the kinase tree at 5 μM concentration, at or above the IC50 for the two compounds versus PAK in both in vitro and cell-based assays. […] PAK1 was not available for testing using this system thus it was not possible to compare directly in this assay system.

PKBβ = PKBβ (Homo sapiens, UniProt P31751); assay: Kinase profiling panel: PKBβ; type: biochemical; conditions: read-out: % activity vs. DMSO, PKBβ
Sequence of PKBβ (P31751 whole entry, species assumed): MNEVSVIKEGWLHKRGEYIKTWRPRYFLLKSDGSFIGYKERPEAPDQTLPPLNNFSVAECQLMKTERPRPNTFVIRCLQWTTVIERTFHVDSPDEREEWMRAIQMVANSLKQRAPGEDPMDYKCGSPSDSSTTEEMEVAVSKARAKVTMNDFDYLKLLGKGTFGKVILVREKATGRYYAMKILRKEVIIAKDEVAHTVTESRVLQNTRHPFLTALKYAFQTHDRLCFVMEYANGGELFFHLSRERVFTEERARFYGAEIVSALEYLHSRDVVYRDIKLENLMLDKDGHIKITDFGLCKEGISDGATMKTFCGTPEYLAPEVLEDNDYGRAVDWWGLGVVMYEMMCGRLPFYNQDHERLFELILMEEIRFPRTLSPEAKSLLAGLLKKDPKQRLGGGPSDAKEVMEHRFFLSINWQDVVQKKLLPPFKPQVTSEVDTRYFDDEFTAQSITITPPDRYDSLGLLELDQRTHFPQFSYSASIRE
Description: as §1

FTC133 cells = assay: Boyden chamber migration assay, FTC133; type: cell-based, Human; conditions: 2.5 μM or 5.0 μM, 12 hours
Description: Cells were grown in media containing 10% FBS. After 24 hours, the medium was aspirated, and media containing 1% FBS was added for 24 hours. The cells were trypsinized for 2 to 5 minutes, washed, and resuspended in media containing 1% FBS. The cell concentration was calculated by hemocytometer. Four hundred μl 1% FBS medium was added into 24-well plates, and a Boyden chamber (8 μm pore) was inserted into each well. Cells were added to each insert, and were allowed to attach in an incubator at 37° C. at 5% CO2 for 2 hours. The cells were then exposed to various concentrations of drugs or control diluent for 3 hours. The inserts were switched to a new well containing media containing 10% FBS, and the chamber was incubated for 12 or 24 hours depending on the migration rate of the cell line. The cells on and under the Boyden chamber membrane were fixed with 3.7% formaldehyde containing 0.05% crystal violet for 15 min after washing cells with PBS. The chambers were washed with distilled water. […] The Q-tips containing the scraped cells and the Boyden chamber containing the non-migrated cells were separately incubated in 80% methanol, shaken at 500 g for 30 minutes, and the extracted dye was measured at 570 nm. Migration was quantified as the ratio of the migrated cells over the total cells (non-migrated plus […]). […]

PAK5 = PAK5 (Homo sapiens, UniProt Q9P286); assay: Kinase profiling panel: PAK5; type: biochemical; conditions: 5 μM compound; average of triplicate
Sequence of PAK5 (Q9P286 whole entry): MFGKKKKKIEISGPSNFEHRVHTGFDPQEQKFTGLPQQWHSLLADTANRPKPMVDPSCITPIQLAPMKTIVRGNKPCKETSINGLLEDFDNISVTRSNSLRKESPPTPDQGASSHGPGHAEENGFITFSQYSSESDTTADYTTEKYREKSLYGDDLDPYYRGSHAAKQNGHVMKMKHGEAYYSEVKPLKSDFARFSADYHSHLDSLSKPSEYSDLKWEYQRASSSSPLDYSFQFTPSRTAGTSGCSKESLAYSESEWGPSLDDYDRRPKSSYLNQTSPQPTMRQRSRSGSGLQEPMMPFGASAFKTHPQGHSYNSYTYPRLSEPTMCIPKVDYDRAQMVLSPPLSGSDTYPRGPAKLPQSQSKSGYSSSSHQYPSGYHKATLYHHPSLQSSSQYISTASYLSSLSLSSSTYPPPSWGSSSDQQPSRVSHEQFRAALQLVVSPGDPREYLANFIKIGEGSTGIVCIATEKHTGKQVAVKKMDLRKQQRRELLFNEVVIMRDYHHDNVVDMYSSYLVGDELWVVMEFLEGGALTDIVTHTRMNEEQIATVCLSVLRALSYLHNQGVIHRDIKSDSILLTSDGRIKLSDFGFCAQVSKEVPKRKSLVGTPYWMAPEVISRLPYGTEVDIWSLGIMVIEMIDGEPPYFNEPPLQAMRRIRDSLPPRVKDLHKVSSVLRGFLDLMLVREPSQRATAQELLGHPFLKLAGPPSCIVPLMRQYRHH
Description: as §1

SMILES | IC50 (TPC1 cells) [µM] | % activity vs. DMSO, GSK3α (GSK3α) [%] | remaining activity at 5 µM (PKBβ; 5 μM compound, average of triplicate) [%] | Migration of FTC133 cells (FTC133 cells) | % activity vs. DMSO, PAK5 (PAK5) [%] | remaining activity at 5 µM (PKBβ) [%]
NCCC(=O)Nc1ccc(-n2nc(C(F)(F)F)cc2-c2ccc3ccc4ccccc4c3c2)cc1 [Compound 4, 3-amino-N-(4-(5-(phenanthren-3-yl)-3-(trifluoromethyl)-1H-pyrazol-1-yl)phenyl)-propanamide] | 1.68 ± 0.32 | 133 | 76 | not inhibited; also recorded: neither compound significantly inhibited migration | 114 | 
CC(C)NC(=O)c1cc(-c2ccc3ccc4ccccc4c3c2)n(-c2ccc(NC(=O)CN)cc2)n1 [Compound 15, 1-(4-(2-Aminoacetamido)phenyl)-N-isopropyl-5-(phenanthren-3-yl)-1H-pyrazole-3-carboxamide] | 2.66 ± 1.05 | 118 |  | not inhibited; also recorded: neither compound significantly inhibited migration | 104 | 84
